Source: ChEMBL document CHEMBL1201861, “Genomics of Drug Sensitity in Cancer screening data, Wellcome Trust Sanger Institute”

Experiments:
Experiment in all cases: cells
KE-37 = type: functional, cell-based, Homo sapiens; settings: Homo sapiens, KE-37;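 also: growth inhibition of KE-37 cells, read out with a cell viability assay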
Description: SANGER: Inhibition of human KE-37 cell growth in a cell viability assay.

NCI-H209 = type: functional, cell-based, Homo sapiens; settings: Homo sapiens, NCI-H209;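 also: growth inhibition of human NCI-H209 cells, measured by a cell viability assay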
Description: SANGER: Inhibition of human NCI-H209 cell growth in a cell viability assay.

D-502MG = type: functional, cell-based, Homo sapiens; settings: Homo sapiens, D-502MG
Description: SANGER: Inhibition of human D-502MG cell growth in a cell viability assay.

A498 = type: functional, cell-based, Homo sapiens; settings: Homo sapiens, A498;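 also: growth inhibition of human A498 cells, read out with a cell viability assay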
Description: SANGER: Inhibition of human A498 cell growth in a cell viability assay.

NEC8 = type: functional, cell-based, Homo sapiens; settings: Homo sapiens, NEC8;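 also: growth inhibition of human NEC8 cells, read out by a cell viability assay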
Description: SANGER: Inhibition of human NEC8 cell growth in a cell viability assay.

GAK = type: functional, cell-based, Homo sapiens; settings: Homo sapiens, GAK;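 also: cell growth inhibition read out by a cell viability assay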
Description: SANGER: Inhibition of human GAK cell growth in a cell viability assay.

HCC 2998 = type: functional, cell-based, Homo sapiens; settings: Homo sapiens, HCC 2998;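 also: growth inhibition of human HCC2998 cells, measured with a cell viability read-out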
Description: SANGER: Inhibition of human HCC2998 cell growth in a cell viability assay.

LS-411N = type: functional, cell-based, Homo sapiens; settings: Homo sapiens, LS-411N
EW-3 = type: functional, cell-based, Homo sapiens; settings: Homo sapiens, EW-3;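 also: cell viability assay read-out, IC50 reflects inhibition of growth of the EW-3 cells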
Description: SANGER: Inhibition of human EW-3 cell growth in a cell viability assay.

U-87 MG = type: functional, cell-based, Homo sapiens, U-87MG ATCC; settings: Homo sapiens, U-87 MG;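 also: growth inhibition of the cells measured with a viability assay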
Description: SANGER: Inhibition of human U-87-MG cell growth in a cell viability assay.

ALL-PO = type: functional, cell-based, Homo sapiens; settings: Homo sapiens, ALL-PO;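 also: growth inhibition of ALL-PO cells, read out by a cell viability assay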
Description: SANGER: Inhibition of human ALL-PO cell growth in a cell viability assay.

IST-MEL1 = type: functional, cell-based, Homo sapiens; settings: Homo sapiens, IST-MEL1;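 also: growth inhibition of the cell line, read out with a cell viability assay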
Description: SANGER: Inhibition of human IST-MEL1 cell growth in a cell viability assay.

KMOE-2 = type: functional, cell-based, Homo sapiens; settings: Homo sapiens, KMOE-2;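 also: growth inhibition of human KMOE-2 cells, read out with a cell viability assay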
Description: SANGER: Inhibition of human KMOE-2 cell growth in a cell viability assay.

KM-H2 = type: functional, cell-based, Homo sapiens; settings: Homo sapiens, KM-H2;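 also: growth inhibition of KM-H2 cells, read out by a cell viability assay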
Description: SANGER: Inhibition of human KM-H2 cell growth in a cell viability assay.

GT3TKB = type: functional, cell-based, Homo sapiens; settings: Homo sapiens, GT3TKB;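 also: growth inhibition of the cell line, read out with a cell viability assay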
Description: SANGER: Inhibition of human GT3TKB cell growth in a cell viability assay.

no-11 = type: functional, cell-based, Homo sapiens; settings: Homo sapiens;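 also: growth inhibition of human NO-11 cells, read out with a cell viability assay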
Description: SANGER: Inhibition of human no-11 cell growth in a cell viability assay.

SK-MEL-2 = type: functional, cell-based, Homo sapiens; settings: Homo sapiens, SK-MEL-2;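 also: growth inhibition of human SK-MEL-2 cells measured with a cell viability assay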
Description: SANGER: Inhibition of human SK-MEL-2 cell growth in a cell viability assay.

PSN1 = type: functional, cell-based, Homo sapiens; settings: Homo sapiens, PSN1;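 also: suppression of growth of human PSN1 cells, read out by a cell viability assay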
Description: SANGER: Inhibition of human PSN1 cell growth in a cell viability assay.

SF-268 = type: functional, cell-based, Homo sapiens; settings: Homo sapiens, SF-268;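 also: growth inhibition of SF-268 cells determined with a cell viability assay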
Description: SANGER: Inhibition of human SF268 cell growth in a cell viability assay.

BB30-HNC = type: functional, cell-based, Homo sapiens; settings: Homo sapiens, BB30-HNC;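 also: growth inhibition of the cultured cell line, read out by a cell viability assay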
Description: SANGER: Inhibition of human BB30-HNC cell growth in a cell viability assay.

MPP-89 = type: functional, cell-based, Homo sapiens; settings: Homo sapiens, MPP-89;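 also: growth inhibition of human MPP-89 cells, read out with a cell viability assay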
Description: SANGER: Inhibition of human MPP-89 cell growth in a cell viability assay.

EW-16 = type: functional, cell-based, Homo sapiens; settings: Homo sapiens, EW-16;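 also: growth inhibition of human EW-16 cells, read out as cell viability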
Description: SANGER: Inhibition of human EW-16 cell growth in a cell viability assay.

BT-474 = type: functional, cell-based, Homo sapiens; settings: Homo sapiens, BT-474
Description: SANGER: Inhibition of human BT-474 cell growth in a cell viability assay.

MZ2-MEL = type: functional, cell-based, Homo sapiens; settings: Homo sapiens, MZ2-MEL;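 also: growth inhibition of MZ2-MEL cells read out with a cell viability assay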
Description: SANGER: Inhibition of human MZ2-MEL cell growth in a cell viability assay.

COLO-668 = type: functional, cell-based, Homo sapiens; settings: Homo sapiens, COLO-668
Description: SANGER: Inhibition of human COLO-668 cell growth in a cell viability assay.

ES8 = type: functional, cell-based, Homo sapiens; settings: Homo sapiens, ES8;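 also: growth inhibition of human ES8 cells, read out with a cell viability assay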
Description: SANGER: Inhibition of human ES8 cell growth in a cell viability assay.

TK-10 = type: functional, cell-based, Homo sapiens; settings: Homo sapiens, TK-10;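 also: growth inhibition of TK-10 cells, read out in a cell viability assay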
Description: SANGER: Inhibition of human TK10 cell growth in a cell viability assay.

SW982 = type: functional, cell-based, Homo sapiens; settings: Homo sapiens, SW982;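 also: growth inhibition of SW982 cells, read out with a cell viability assay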
Description: SANGER: Inhibition of human SW982 cell growth in a cell viability assay.

OCUB-M = type: functional, cell-based, Homo sapiens; settings: Homo sapiens, OCUB-M;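 also: growth inhibition of the cancer cell line, read out through a cell viability assay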
Description: SANGER: Inhibition of human OCUB-M cell growth in a cell viability assay.

CGTH-W-1 = type: functional, cell-based, Homo sapiens; settings: Homo sapiens, CGTH-W-1;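 also: growth inhibition of human CGTH-W-1 cells measured by cell viability assay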
Description: SANGER: Inhibition of human CGTH-W-1 cell growth in a cell viability assay.

KNS-81-FD = type: functional, cell-based, Homo sapiens; settings: Homo sapiens, KNS-81-FD;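 also: growth inhibition of KNS-81-FD cells, read out with a cell viability assay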
Description: SANGER: Inhibition of human KNS-81-FD cell growth in a cell viability assay.

SHP77 = type: functional, cell-based, Homo sapiens, SHP-77; settings: Homo sapiens, SHP77;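 also: growth inhibition of human SHP-77 cells measured by a cell viability assay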
Description: SANGER: Inhibition of human SHP-77 cell growth in a cell viability assay.

SH-4 = type: functional, cell-based, Homo sapiens; settings: Homo sapiens, SH-4;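 also: growth inhibition of SH-4 cells, read out with a cell viability assay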
Description: SANGER: Inhibition of human SH-4 cell growth in a cell viability assay.

SW 954 = type: functional, cell-based, Homo sapiens; settings: Homo sapiens, SW 954;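 also: growth inhibition of SW954 human cancer cells, read out as cell viability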
Description: SANGER: Inhibition of human SW954 cell growth in a cell viability assay.

KINGS-1 = type: functional, cell-based, Homo sapiens; settings: Homo sapiens, KINGS-1;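 also: cell viability assay measuring suppression of KINGS-1 cell growth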
Description: SANGER: Inhibition of human KINGS-1 cell growth in a cell viability assay.

ES1 = type: functional, cell-based, Homo sapiens; settings: Homo sapiens, ES1;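 also: growth inhibition of ES1 cells, read out with a cell viability assay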
Description: SANGER: Inhibition of human ES1 cell growth in a cell viability assay.

EM-2 = type: functional, cell-based, Homo sapiens; settings: Homo sapiens, EM-2;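 also: growth inhibition of EM-2 cells, read out with a cell viability assay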
Description: SANGER: Inhibition of human EM-2 cell growth in a cell viability assay.

HEL = type: functional, cell-based, Homo sapiens; settings: Homo sapiens, HEL;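 also: growth inhibition of HEL cells, read out with a cell viability assay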
Description: SANGER: Inhibition of human HEL cell growth in a cell viability assay.

MZ7-mel = type: functional, cell-based, Homo sapiens; settings: Homo sapiens, MZ7-mel;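 also: growth inhibition of human MZ7-mel cells, measured by a cell viability assay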
Description: SANGER: Inhibition of human MZ7-mel cell growth in a cell viability assay.

HOP-62 = type: functional, cell-based, Homo sapiens; settings: Homo sapiens, HOP-62;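 also: cell growth inhibition determined with a viability assay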
Description: SANGER: Inhibition of human HOP-62 cell growth in a cell viability assay.

NB10 = type: functional, cell-based, Homo sapiens; settings: Homo sapiens, NB10;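 also: growth inhibition of NB10 cells, read out by a cell viability assay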
Description: SANGER: Inhibition of human NB10 cell growth in a cell viability assay.

RPMI-8226 = type: functional, cell-based, Homo sapiens; settings: Homo sapiens, RPMI-8226
Description: SANGER: Inhibition of human RPMI-8226 cell growth in a cell viability assay.

SW684 = type: functional, cell-based, Homo sapiens; settings: Homo sapiens, SW684;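 also: growth inhibition of human SW684 cells, measured by a cell viability assay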
Description: SANGER: Inhibition of human SW684 cell growth in a cell viability assay.

LC-2-ad = type: functional, cell-based, Homo sapiens; settings: Homo sapiens, LC-2-ad;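 also: growth inhibition of human LC-2-ad cells, read out with a cell viability assay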
Description: SANGER: Inhibition of human LC-2-ad cell growth in a cell viability assay.

ACN = type: functional, cell-based, Homo sapiens; settings: Homo sapiens, ACN;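 also: growth inhibition of the human ACN cell line, read out via cell viability testing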
Description: SANGER: Inhibition of human ACN cell growth in a cell viability assay.

A704 = type: functional, cell-based, Homo sapiens; settings: Homo sapiens, A704;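 also: growth inhibition of human A704 cells, read out with a cell viability assay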
Description: SANGER: Inhibition of human A704 cell growth in a cell viability assay.

LB996-RCC = type: functional, cell-based, Homo sapiens; settings: Homo sapiens, LB996-RCC
Description: SANGER: Inhibition of human LB996-RCC cell growth in a cell viability assay.

MFH-ino = type: functional, cell-based, Homo sapiens; settings: Homo sapiens, MFH-ino;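 also: growth inhibition of human MFH-ino cells, read out by a cell viability assay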
Description: SANGER: Inhibition of human MFH-ino cell growth in a cell viability assay.

NCI-H226 = type: functional, cell-based, Homo sapiens; settings: Homo sapiens, NCI-H226;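 also: cell viability read-out used to gauge growth inhibition of the cells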
Description: SANGER: Inhibition of human NCI-H226 cell growth in a cell viability assay.

SMILES: CN(C)C(=N)NC(=N)N [METFORMIN]
- IC50 (KE-37): 7490 µM
- IC50 (NCI-H209): 925 µM
- IC50 (D-502MG): > 20000 µM
- IC50 (A498): > 20000 µM
- IC50 (NEC8): 16000 µM
- IC50 (GAK): > 20000 µM
- IC50 (HCC 2998): > 20000 µM
- IC50 (LS-411N): 10400 µM
- IC50 (EW-3): 12200 µM
- IC50 (U-87 MG): > 20000 µM
- IC50 (ALL-PO): 2900 µM
- IC50 (IST-MEL1): > 20000 µM
- IC50 (KMOE-2): > 20000 µM
- IC50 (KM-H2): 18700 µM
- IC50 (GT3TKB): > 20000 µM
- IC50 (no-11): > 20000 µM
- IC50 (SK-MEL-2): > 20000 µM
- IC50 (PSN1): > 20000 µM
- IC50 (SF-268): > 20000 µM
- IC50 (BB30-HNC): 10800 µM
- IC50 (MPP-89): > 20000 µM
- IC50 (EW-16): 6780 µM
- IC50 (BT-474): > 20000 µM
- IC50 (MZ2-MEL): > 20000 µM
- IC50 (COLO-668): > 20000 µM
- IC50 (ES8): 17100 µM
- IC50 (TK-10): > 20000 µM
- IC50 (SW982): > 20000 µM
- IC50 (OCUB-M): 11400 µM
- IC50 (CGTH-W-1): > 20000 µM
- IC50 (KNS-81-FD): 8880 µM
- IC50 (SHP77): > 20000 µM
- IC50 (SH-4): > 20000 µM
- IC50 (SW 954): > 20000 µM
- IC50 (KINGS-1): > 20000 µM
- IC50 (ES1): > 20000 µM

SMILES: COc1cc2ncn(-c3cc(OCc4ccccc4C(F)(F)F)c(C(N)=O)s3)c2cc1OC [GW843682X]
- IC50 (KE-37): 0.00477 µM
- IC50 (EM-2): 0.111 µM
- IC50 (NCI-H209): 0.225 µM
- IC50 (HEL): 0.0275 µM
- IC50 (D-502MG): > 0.256 µM
- IC50 (MZ7-mel): 0.0839 µM
- IC50 (A498): > 0.256 µM
- IC50 (HOP-62): 0.0448 µM
- IC50 (NEC8): 0.0487 µM
- IC50 (GAK): 0.185 µM
- IC50 (LS-411N): 0.008 µM
- IC50 (EW-3): 0.0663 µM
- IC50 (U-87 MG): > 0.256 µM
- IC50 (ALL-PO): 0.00876 µM
- IC50 (IST-MEL1): 0.0288 µM
- IC50 (NB10): > 0.256 µM
- IC50 (KMOE-2): 0.231 µM
- IC50 (KM-H2): 0.0205 µM
- IC50 (RPMI-8226): 0.0281 µM
- IC50 (GT3TKB): 0.0123 µM
- IC50 (no-11): 0.178 µM
- IC50 (SW684): > 0.256 µM
- IC50 (SK-MEL-2): > 0.256 µM
- IC50 (PSN1): 0.00583 µM
- IC50 (SF-268): 0.083 µM
- IC50 (LC-2-ad): 0.0156 µM
- IC50 (ACN): 0.0333 µM
- IC50 (BB30-HNC): 0.0341 µM
- IC50 (MPP-89): 0.226 µM
- IC50 (A704): > 0.256 µM
- IC50 (EW-16): 0.0133 µM
- IC50 (BT-474): > 0.256 µM
- IC50 (MZ2-MEL): 0.126 µM
- IC50 (COLO-668): > 0.256 µM
- IC50 (LB996-RCC): 0.104 µM
- IC50 (MFH-ino): 0.0355 µM
- IC50 (ES8): 0.0105 µM
- IC50 (TK-10): 0.0909 µM
- IC50 (SW982): 0.0253 µM
- IC50 (OCUB-M): 0.0122 µM
- IC50 (CGTH-W-1): > 0.256 µM
- IC50 (KNS-81-FD): > 0.256 µM
- IC50 (SHP77): 0.0573 µM
- IC50 (SH-4): 0.123 µM
- IC50 (SW 954): 0.0181 µM
- IC50 (KINGS-1): 0.149 µM
- IC50 (NCI-H226): > 0.256 µM
- IC50 (ES1): 0.025 µM

SMILES: N[C@@H](CSC(c1ccccc1)(c1ccccc1)c1ccccc1)C(=O)O [S-TRITYL-L-CYSTEINE]
- IC50 (KE-37): 0.43 µM
- IC50 (EM-2): > 5.12 µM
- IC50 (NCI-H209): 4.75 µM
- IC50 (HEL): 2.75 µM
- IC50 (D-502MG): > 5.12 µM
- IC50 (MZ7-mel): 3.18 µM
- IC50 (A498): > 5.12 µM
- IC50 (HOP-62): 2.98 µM
- IC50 (NEC8): 2.69 µM
- IC50 (GAK): > 5.12 µM
- IC50 (LS-411N): 1.52 µM
- IC50 (EW-3): 4.92 µM
- IC50 (U-87 MG): > 5.12 µM
- IC50 (ALL-PO): 2.25 µM
- IC50 (IST-MEL1): > 5.12 µM
- IC50 (NB10): > 5.12 µM
- IC50 (KMOE-2): > 5.12 µM
- IC50 (KM-H2): 2.9 µM
- IC50 (RPMI-8226): 1.28 µM
- IC50 (GT3TKB): 0.285 µM
- IC50 (no-11): 4.93 µM
- IC50 (SW684): > 5.12 µM
- IC50 (SK-MEL-2): > 5.12 µM
- IC50 (PSN1): 1.49 µM
- IC50 (SF-268): 3.15 µM
- IC50 (LC-2-ad): 0.537 µM
- IC50 (ACN): 1.46 µM
- IC50 (BB30-HNC): 1.19 µM
- IC50 (MPP-89): > 5.12 µM
- IC50 (A704): > 5.12 µM
- IC50 (EW-16): 1.62 µM
- IC50 (BT-474): > 5.12 µM
- IC50 (MZ2-MEL): > 5.12 µM
- IC50 (COLO-668): > 5.12 µM
- IC50 (LB996-RCC): 2.9 µM
- IC50 (MFH-ino): 0.471 µM
- IC50 (ES8): 0.432 µM
- IC50 (TK-10): > 5.12 µM
- IC50 (SW982): 1.07 µM
- IC50 (OCUB-M): 0.817 µM
- IC50 (CGTH-W-1): > 5.12 µM
- IC50 (KNS-81-FD): > 5.12 µM
- IC50 (SHP77): > 5.12 µM
- IC50 (SH-4): 2.31 µM
- IC50 (SW 954): 1.88 µM
- IC50 (KINGS-1): 2.16 µM
- IC50 (NCI-H226): > 5.12 µM
- IC50 (ES1): 1.64 µM
